Data from patent publication US20240002332A1, “Small Molecule Inhibitors of SARS-CoV-2 Infections” (priority 2020, published 2024).
Values after ≈ are worked out from the molar mass of the structure shown. Read-outs that look alike come from different tables or passages of the source.

Legend:
[1] = tested on: SARS CoV-2 (USA_WA1/2020); assay: Cytopathic effect (CPE) assay; format: cell-based; conditions: for Emax: read-out: Efficacy CPE assay
Vero-E6 = assay: Cytotoxicity counter screen (cell viability, CellTiter-Glo); format: cell-based; conditions: for IC50: Chlorocebus sabaeus, read-out: IC50 (μM) cell viability
Description: Compound cytotoxicity was assessed in a BSL-2 counter screen as follows: Cell culture media (MEM, 1% Pen/Strep/GlutaMax, 1% HEPES, 2% HI FBS) was dispensed at 5 μl/well into ARPs and incubated at room temperature to allow for compound dissolution. Vero-E6 (selected for high ACE2 expression) was dispensed into assay plates at 4000 cells/well in 25 μl media. Assay plates were incubated for 72 h at 37 C, 5% CO2, 90% humidity. Then, 30 μl/well of CellTiter-Glo (Promega #G7573) was dispensed into the assay plate. Luminescence was read using a BMG PHERAstar plate reader following incubation at room temperature for 10 min to measure cell viability.

[2] = Kinetic solubility (Tier I ADME); conditions: kinetic from dmso stock
[3] = Rat liver microsomal (RLM) stability; conditions: for half-life: rat
[4] = Parallel artificial membrane permeability assay (PAMPA); conditions: for Papp / Permeability: PAMPA; for Permeability: Tier I ADME
SARS-CoV-2 [5] = assay: SARS-CoV-2 viral titer in human bronchial epithelial cells (HBEC; EpiAirway); format: cell-based; conditions: dilutions 0.01, 0.1, 1, 10 micrograms per mL
Description: In the first part of the experiment, the test compounds were diluted in Assay medium (AIR-100-ASY). The test compound dilutions (0.01, 0.1, 1, 10 micrograms per mL) were added to each insert on the apical layer (0.15 mL) and basal layer (0.85 mL). Following the 1 h treatment, the apical medium was removed, and the basal side was replaced with fresh compound. Virus (0.15 mL) was then added to each insert on the apical layer, removed after 1 h and washed with 0.4 mL TEER buffer. The basal side medium/compound was replaced with 1 mL of Assay medium. Every twenty-four hours, the apical layer of the tissues were washed with 0.4 mL of TEER buffer and aliquoted to separate microfuge tubes. Trizol LS (1.2 mL) was added to each tube, pipetted up and down several times and stored at −80° C. The basal layer supernatant (1 mL) was collected from each well, aliquoted into separate microfuge tubes and stored at −80° C. The basal side medium was replaced with 1 mL of Maintenance Medium.
In the second part of the experiment, RNA was isolated from the trizol samples and the supernatants from all treatments were tittered by plaque assay or TCID50 to determine the amount of virus present in each sample.

in vitro [6] = conditions: rat, microsomes
physchem = conditions: kinetic from dmso stock
in vitro [7] = conditions: PAMPA
SARS-CoV-2 [8] = conditions: EIDD-2801 250 mpk BID; Compound P3 60 mpk BID
Description: EIDD-2801 (molnupiravir) was chosen as the positive control at 250 mpk BID oral dose.

ZIKV = conditions: cited from earlier work
[9] = Pharmacokinetics in mice IV 3 and PO 10 mg/kg; plasma, lung and liver
[10] = Severe acute respiratory syndrome coronavirus 2, Vero C1008, % inhibition of CPE, SARS-CoV-2-infected Vero-E6, 72 h
[11] = Severe acute respiratory syndrome coronavirus 2, Vero C1008, rescue IC50, SARS-CoV-2-infected Vero-E6, 72 h
[12] = Vero C1008, uninfected Vero-E6, 72 h, CellTiter-Glo
[13] = uninfected Vero-E6, 72 h, CellTiter-Glo
[14] = Severe acute respiratory syndrome coronavirus 2, Vero C1008, 72 h
[15] = mice, Compound P3 dosed PO 10 mg/kg, Liver
[16] = mice, Compound P3 dosed PO 10 mg/kg, Plasma
[17] = mouse Plasma, Compound P3 dosed IV 3 mg/kg
[18] = mouse Plasma, Compound P3 dosed PO 10 mg/kg

O=C(Nc1ccc([N+](=O)[O-])cc1Cl)c1cc(Cl)ccc1OC1CCNCC1 [Compound 4, 5-chloro-N-(2-chloro-4-nitrophenyl)-2-(piperidin-4-yloxy)benzamide]
Emax [1, 10]: -8.3% | IC50 [1, 11]: 5.1 µM | IC50 (Vero-E6; [12]): 4.05 µM | solubility [2]: 8.4 µg/mL (≈ 20.5 µM) | half-life ([3]; rat liver microsomes): > 30 min | Papp [4]: 516 ×10⁻⁶ cm/s

O=C(Nc1ccc([N+](=O)[O-])cc1Cl)c1cc(Br)ccc1O [Compound 6, 5-bromo-N-(2-chloro-4-nitrophenyl)-2-hydroxybenzamide]
IC50 (Vero-E6; Vero C1008, 72 h): 0.4 µM | Efficacy cell viability (Vero-E6; [13]): −94.8 | inhibition of SARS-CoV-2 (viral titer) (SARS-CoV-2 [5]): effectively inhibited SARS-CoV-2 in human bronchial epithelial cells at sub-nanomolar and nanomolar concentrations | half-life ([3]; microsomes): > 30 min | Permeability [4]: 67 10^−6 cm/sec

O=C(Nc1ccc([N+](=O)[O-])cc1)c1cc(Cl)ccc1O [Compound 24, 5-chloro-2-hydroxy-N-(4-nitrophenyl)benzamide]
IC50 (Vero-E6; Vero C1008, 72 h): 0.57 µM | Efficacy cell viability (Vero-E6; [13]): −93.1 | RLM stability (T1/2 min) ([3]; rat liver microsomes): 22 min | Permeability [4]: 127.13 10^−6 cm/sec

COc1cc([N+](=O)[O-])ccc1NC(=O)c1cc(Cl)ccc1O [Compound 27, 5-chloro-2-hydroxy-N-(2-methoxy-4-nitrophenyl)benzamide]
IC50 (Vero-E6; Vero C1008, 72 h): 0.64 µM | Efficacy cell viability (Vero-E6; [13]): −92.9 | half-life ([3]; microsomes): > 30 min | Permeability [4]: 334.4 10^−6 cm/sec

N#Cc1ccc(NC(=O)c2cc(Cl)ccc2O)c(Cl)c1 [Compound 32, 5-chloro-N-(2-chloro-4-cyanophenyl)-2-hydroxybenzamide]
IC50 (Vero-E6; [12]): 1.01 µM | Efficacy cell viability (Vero-E6; [13]): −99.6 | half-life ([3]; rat liver microsomes): > 30 min | Papp [4]: 5.16 ×10⁻⁶ cm/s

O=C(Nc1ccc(C(F)(F)F)cc1)c1cc(Cl)ccc1O [Compound 39, 5-chloro-2-hydroxy-N-(4-(trifluoromethyl)phenyl)benzamide]
IC50 (Vero-E6; Vero C1008, 72 h): 0.45 µM | Efficacy cell viability (Vero-E6; [13]): −94.6 | half-life ([3]; microsomes): > 30 min | Papp [4]: 22.3 ×10⁻⁶ cm/s

O=C(Nc1ccc(C(F)(F)F)c(F)c1)c1cc(Br)ccc1O [Compound 59, 5-bromo-N-(3-fluoro-4-(trifluoromethyl)phenyl)-2-hydroxybenzamide]
IC50 (Vero-E6; [12]): 0.45 µM | Efficacy cell viability (Vero-E6; [13]): −91.7 | half-life (in vitro [6]): > 30 min

O=C(Oc1ccc(Cl)cc1C(=O)Nc1ccc([N+](=O)[O-])cc1Cl)c1ccc(C(F)(F)F)cc1 [Compound P1, 4-chloro-2-((2-chloro-4-nitrophenyl)carbamoyl)phenyl 4-(trifluoromethyl)benzoate]
Emax [1, 10]: 34% | IC50 [1, 11]: 0.11 µM | IC50 (Vero-E6; [12]): 0.57 µM | Efficacy cell viability (Vero-E6; [13]): −96.34 | solubility (physchem): < 1 µg/mL | Papp (in vitro [7]): < 2.6 ×10⁻⁶ cm/s

CCCCCCCC(=O)Oc1ccc(Cl)cc1C(=O)Nc1ccc([N+](=O)[O-])cc1Cl [Compound P2, 4-chloro-2-((2-chloro-4-nitrophenyl)carbamoyl)phenyl octanoate]
Emax [1, 10]: 36.5% | IC50 [1, 11]: 0.1 µM | IC50 (Vero-E6; [12]): 0.57 µM | Efficacy cell viability (Vero-E6; [13]): −95.8 | solubility (physchem): 1.1 µg/mL (≈ 2.43 µM) | Papp (in vitro [7]): < 6.5 ×10⁻⁶ cm/s

CC(=O)Oc1ccc(Cl)cc1C(=O)Nc1ccc([N+](=O)[O-])cc1Cl [Compound P4, 4-chloro-2-((2-chloro-4-nitrophenyl)carbamoyl)phenyl acetate]
Emax [1, 10]: 36.2% | IC50 [1, 11]: 0.25 µM | IC50 (Vero-E6; [12]): 0.57 µM | Efficacy cell viability (Vero-E6; [13]): −93.0 | solubility (physchem): < 1 µg/mL | Papp (in vitro [7]): 632 ×10⁻⁶ cm/s

COCC(=O)Oc1ccc(Cl)cc1C(=O)Nc1ccc([N+](=O)[O-])cc1Cl [Compound P5, 4-chloro-2-((2-chloro-4-nitrophenyl)carbamoyl)phenyl 2-methoxyacetate]
Emax [1, 10]: 37% | IC50 [1, 11]: 0.11 µM | IC50 (Vero-E6; [12]): 0.51 µM | Efficacy cell viability (Vero-E6; [13]): −91.2 | solubility (physchem): < 1 µg/mL

CC(C)OC(=O)Oc1ccc(Cl)cc1C(=O)Nc1ccc([N+](=O)[O-])cc1Cl [Compound P6, 4-chloro-2-((2-chloro-4-nitrophenyl)carbamoyl)phenyl isopropyl carbonate]
Emax [1, 10]: 37.1% | IC50 [1, 11]: 0.11 µM | IC50 (Vero-E6; [12]): 0.45 µM | Efficacy cell viability (Vero-E6; [13]): −82.3 | solubility (physchem): < 1 µg/mL | Papp (in vitro [7]; pH 5): 57 ×10⁻⁶ cm/s

O=C(Oc1ccc(Cl)cc1C(=O)Nc1ccc([N+](=O)[O-])cc1Cl)c1ccccc1 [Compound P7, 4-chloro-2-((2-chloro-4-nitrophenyl)carbamoyl)phenyl benzoate]
Emax [1, 10]: 26.9% | IC50 [1, 11]: 0.13 µM | IC50 (Vero-E6; [12]): 0.32 µM | Efficacy cell viability (Vero-E6; [13]): −94.0 | solubility (physchem): < 1 µg/mL

CCOP(=O)(OCC)Oc1ccc(Cl)cc1C(=O)Nc1ccc([N+](=O)[O-])cc1Cl [Compound P8, 4-chloro-2-((2-chloro-4-nitrophenyl)carbamoyl)phenyl diethyl phosphate]
IC50 [1, 14]: 0.41 µM | Emax [1, 14]: 36.8% | IC50 (Vero-E6; Vero C1008, 72 h): 0.91 µM | Efficacy cell viability (Vero-E6; [13]): −90.6 | solubility [2]: < 1 µg/mL | half-life ([3]; microsomes): > 30 min | Papp [4]: 982 ×10⁻⁶ cm/s

CC(C)COC(=O)Oc1ccc(Cl)cc1C(=O)Nc1ccc([N+](=O)[O-])cc1Cl [Compound P9, 4-chloro-2-((2-chloro-4-nitrophenyl)carbamoyl)phenyl isobutyl carbonate]
Emax [1, 10]: 35.2% | IC50 [1, 11]: 0.13 µM | IC50 (Vero-E6; [12]): 0.57 µM | Efficacy cell viability (Vero-E6; [13]): −91.0 | solubility (physchem): 4.48 µg/mL (≈ 10.5 µM)

CC(C)C(=O)OC[C@H]1O[C@@H](n2ccc(NO)nc2=O)[C@H](O)[C@@H]1O [EIDD-2801, reference compound]
IHC immunoreactivity staining in the right lung (SARS-CoV-2 [8]): lowered in severity

O=C(Nc1ccc([N+](=O)[O-])cc1Cl)c1cc(Cl)ccc1O [Niclosamide, 5-chloro-N-(2-chloro-4-nitrophenyl)-2-hydroxybenzamide, reference compound]
ZIKV growth (ZIKV; early stages and 24 h post infection): inhibited ZIKV growth | ZIKV titer (ZIKV; human placental epithelial cells and iPSC-derived human neural progenitor cells): reduced ZIKV titer | RLM stability (T1/2 min) ([3]; rat liver microsomes): >30 min | half-life ([3]; rat liver microsomes): > 30 min | permeability in PAMPA ([4]; result in words): unable to be quantified in the acceptor compartment | AUC_% Extrap [9, 15]: 4.4% | t1/2 [9, 15]: 438 min | AUC_% Extrap ([9]; mice, Compound P3 dosed PO 10 mg/kg, Lung): 0.6% | AUC0-INF [9, 16]: 1620 ng·h/mL | AUC_% Extrap [9, 16]: 1.0% | AUC_%Extrap_obs [9, 17]: 0.3% | Clast [9, 17]: 0.329 ng/mL | Tlast [9, 17]: 30 h | AUCINF_obs [9, 18]: 1620 ng·h/mL | AUC_%Extrap_obs [9, 18]: 1.0% | Clast [9, 18]: 4.04 ng/mL | Cmax [9, 18]: 346 ng/mL | Tlast [9, 18]: 30 h | t½ [9, 18]: 162 min | AUC(0-inf) ([9]; mouse, liver, po, 10 mg/kg): 9250 ng·h/mL | AUC(0-t) ([9]; mouse, liver, po, 10 mg/kg): 8850 ng·h/mL | Cmax ([9]; mouse, liver, po, 10 mg/kg): 882 ng/mL | AUC(0-inf) ([9]; mouse, lung, po, 10 mg/kg): 3080 ng·h/mL | AUC(0-t) ([9]; mouse, lung, po, 10 mg/kg): 3060 ng·h/mL | Cmax ([9]; mouse, lung, po, 10 mg/kg): 397 ng/mL | half-life ([9]; mouse, lung, po, 10 mg/kg): 258 min | AUC(0-inf) ([9]; mouse, plasma, iv, 3 mg/kg): 587 ng·h/mL | AUC(0-t) ([9]; mouse, plasma, iv, 3 mg/kg): 585 ng·h/mL | Cmax ([9]; mouse, plasma, iv, 3 mg/kg): 168 ng/mL | Tmax ([9]; mouse, plasma, iv, 3 mg/kg): 4.98 min | half-life ([9]; mouse, plasma, iv, 3 mg/kg): 216 min | AUC(0-t) ([9]; mouse, plasma, po, 10 mg/kg): 1600 ng·h/mL | half-life ([9]; mouse, plasma, po, 10 mg/kg): 162 min
